Values quoted from earlier work in patent US20120270783A1, “Rapid opioid detoxification” (priority 2011, published 2012).
Where two headings read alike, the source gives them in different places.

Experiments:
[1] = in vivo
receptor sites = settings: relative to naloxone

SMILES	time to rapid awakening after discontinuation (after maintenance of anesthesia for approximately 1-10 hours at recommended doses)	time to rapid awakening after discontinuation, usual (usually, after maintenance of anesthesia for approximately 1-10 hours) [min]	half-life [1] [h]	half-life ([1]; listed as Nalmefene)	receptor sites occupied, more than naloxone (receptor sites)
CC(C)c1cccc(C(C)C)c1O [propofol, 2,6-diisopropyl phenol]	less than 20 minutes	10 to 15			
C=C1CC[C@@]2(O)[C@H]3Cc4ccc(O)c5c4[C@@]2(CCN3CC2CC2)[C@H]1O5 [nalmefene]			10.8	about 10.8 hours	approximately 50%
